Experimental findings from US9341627B2, “Protein structural biomarkers to guide targeted chemotherapies” (priority 2009, dated 2016) are described below.

Structures are written as SMILES.

Assay [1] deals with Eg5 E116, D130 and A133 mutants. The settings on record: all E116, D130 and A133 mutants, to varying degrees.
Description: (§1) Basal ATPase activities were measured with a coupled enzymatic assay as previously described (29) with 5 μM motor protein and 1 mM MgATP in a SpectraMax 2E spectrophotometer for high-throughput kinetic measurements as previously described (30). […] Reactions used for calculation of the IC50 values contained between 5 and 22.5 mM NaCl. Data were reproducible with protein samples purified from differing batches of cultured cells from two different laboratories.
Assay [2] deals with T1, wildtype Eg5 kinesin motor domain (Homo sapiens, UniProt P52732).
T1 sequence (P52732 1-370): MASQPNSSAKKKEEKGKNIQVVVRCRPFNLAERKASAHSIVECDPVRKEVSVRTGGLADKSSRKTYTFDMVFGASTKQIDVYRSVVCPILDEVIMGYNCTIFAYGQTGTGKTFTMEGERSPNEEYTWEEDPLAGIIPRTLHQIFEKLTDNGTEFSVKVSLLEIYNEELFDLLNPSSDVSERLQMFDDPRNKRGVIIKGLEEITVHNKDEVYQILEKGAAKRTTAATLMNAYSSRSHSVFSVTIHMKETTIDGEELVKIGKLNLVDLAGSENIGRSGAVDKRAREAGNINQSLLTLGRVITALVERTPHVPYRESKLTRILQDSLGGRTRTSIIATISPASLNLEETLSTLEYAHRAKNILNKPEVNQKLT
As to the kind of experiment: In vitro basal ATPase assay (coupled enzymatic), wildtype Eg5. The note with it: 5 μM motor protein, 1 mM MgATP, 5-22.5 mM NaCl, read-out: IC50, basal ATP hydrolysis. Type of assay: biochemical.
Description: as §1

Take `N[C@@H](CSC(c1ccccc1)(c1ccccc1)c1ccccc1)C(=O)O` [STC, S-trityl-L-cysteine]: in assay [1], the “sensitivity of mutants to inhibitor” value is reported as “reduced sensitivity”.

Broadly, the IC50 is the concentration at which inhibition is half-maximal. On to `CCOC(=O)C1=C(C)NC(=S)NC1c1cccc(O)c1` (centres unmarked) [monastrol], for which, in assay [2], the IC50 worked out at 8 µM.
